Target: T1, Sodium/glucose cotransporter 2 (Homo sapiens, UniProt P31639)
T1 sequence (P31639 whole entry): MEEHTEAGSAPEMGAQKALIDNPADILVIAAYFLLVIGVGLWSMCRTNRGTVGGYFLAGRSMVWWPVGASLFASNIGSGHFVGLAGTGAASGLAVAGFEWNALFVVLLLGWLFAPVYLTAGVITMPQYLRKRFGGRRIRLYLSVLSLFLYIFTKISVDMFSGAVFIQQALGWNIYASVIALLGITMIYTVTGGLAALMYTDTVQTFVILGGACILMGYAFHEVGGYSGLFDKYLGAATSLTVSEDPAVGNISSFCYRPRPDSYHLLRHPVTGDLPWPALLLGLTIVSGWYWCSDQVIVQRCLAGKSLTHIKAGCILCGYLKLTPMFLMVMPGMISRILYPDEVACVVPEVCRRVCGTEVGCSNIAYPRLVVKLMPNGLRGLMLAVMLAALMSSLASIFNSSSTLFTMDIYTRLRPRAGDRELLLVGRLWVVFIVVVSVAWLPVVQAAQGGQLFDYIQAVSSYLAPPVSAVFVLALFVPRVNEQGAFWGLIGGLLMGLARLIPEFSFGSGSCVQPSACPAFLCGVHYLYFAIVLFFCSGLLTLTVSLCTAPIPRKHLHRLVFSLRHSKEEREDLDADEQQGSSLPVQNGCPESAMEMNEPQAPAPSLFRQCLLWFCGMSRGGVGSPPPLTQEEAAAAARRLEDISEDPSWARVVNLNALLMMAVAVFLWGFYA
Assay: Inhibition of human SGLT2 expressed in CHO cells using methyl-alpha-D-glucopyranoside by liquid scintillation counting
Format: cell-based

Row | SMILES | IC50
1 | OC[C@H]1O[C@@H](c2ccc3c(c2)Cc2ccc(cc2)OCCCCCCC3)[C@H](O)[C@@H](O)[C@@H]1O | 99.7 nM
2 | OC[C@H]1O[C@@H](c2ccc3c(c2)Cc2ccc(cc2)OCCCCCC3)[C@H](O)[C@@H](O)[C@@H]1O | 81.9 nM
3 | OC[C@H]1O[C@@H](c2ccc3c(c2)Cc2ccc(cc2)OC/C=C/CCC3)[C@H](O)[C@@H](O)[C@@H]1O | 89.6 nM
4 | OC[C@H]1O[C@@H](c2ccc3c(c2)Cc2ccc(cc2)OC/C=C/CCCC3)[C@H](O)[C@@H](O)[C@@H]1O | 103 nM

— ChEMBL document CHEMBL1777701, “Glucosides with cyclic diarylpolynoid as novel C-aryl glucoside SGLT2 inhibitors” (Bioorg Med Chem Lett, 2011)
